In PMC7915867, “Discovery of a Small Molecule Inhibitor of Human Adenovirus Capable of Preventing Escape from the Endosome” (International Journal of Molecular Sciences, 2021):
Where two headings read alike, the source gives them in different places.

What was measured:
wild-type HAdV5 = assay: Virus yield reduction (virus burst assay); format: cell-based, human adenovirus; settings: A549 cells, HAdV 100 vp/cell, 48 h; niclosamide 5 μM, 16 at 10-fold IC50; versus DMSO
Procedure: After 48 h, cells were harvested and subjected to three rounds of freeze/thaw. Serial dilutions of clarified lysates were titrated on A549 cells (3 × 10^4 cells/well), and we calculated TCID50 values using an endpoint dilution method.

HAdV5 = assay: HAdV-mediated endosome disruption (α-sarcin co-delivery assay); format: cell-based, human adenovirus; settings: A549 cells, niclosamide 5 μM, independent of virus concentration
Procedure: A549 cells (~20,000 cells/well) were incubated in DMEM without cysteine or methionine supplemented with 10% dialyzed FBS [DMEM (−)] in black 96-well plates for 1 h before infection. […] The medium was then removed and replaced with 50 μL DMEM (−) containing 0.1 mg/mL α-sarcin (Santa Cruz Biotechnology, Dallas, TX, USA) and the virus and drug mixtures. After 2 h at 37 °C, the Click-iT HPG Alexa Fluor 488 Protein Synthesis Assay Kits (Invitrogen, MA, USA) were used to analyze protein synthesis according to the manufacturer’s instructions. The incorporation of the amino acid analog of methionine L-homopropargylglycine (HPG) containing Alexa Fluor 488 azide was measured using a Typhoon 9410 imager (GE Healthcare Life Sciences, MA, USA) and calculated subtracting the background level of the control well containing L-homopropargylglycine (HPG) and α-sarcin but not virus (100% incorporation).

HAdV-5 DNA replication = assay: HAdV DNA quantification by real-time PCR (DNA replication); format: cell-based, human adenovirus; settings: A549 cells, 24 h, HAdV5 100 vp/cell; 16 at 7.8 μM (10-fold IC50), niclosamide 5 μM; versus DMSO
Procedure: All samples were carried out in duplicate. After incubation for 24 h at 37 °C, DNA was purified from the cell lysate with the E.Z.N.A.® Tissue DNA Kit (Omega Bio-tek, Norcross, GA, USA) following the manufacturer’s instructions. TaqMan primers and probes for a common region of the HAdV5 hexon were designed with the GenScript Real-Time PCR (TaqMan) Primer Design software (GenScript, Leiden, Netherlands). Oligonucleotides sequences were: AQ1: 5′-GCCACGGTGGGGTTTCTAAACTT-3′; AQ2: 5′-GCCCCAGTGGTCTTACATGCACAT-3′; Probe: 6-FAM-5′-TGCACCAGACCCGGGCTCAGGTACTCCGA-3′-TAMRA. Real-time PCR mixtures contained 9.5 μL of the purified DNA, AQ1 and AQ2 at a concentration of 200 nM each and Probe at a concentration of 50 nM in a total volume of 25 μL. The PCR cycling protocol was 95 °C for 3 min followed by 40 cycles of 95 °C for 10 s and 60 °C for 30 s. Human glyceraldehyde-3-phosphate dehydrogenase (GAPDH) gene was applied as internal control. Oligonucleotides sequences for GAPDH and conditions were previously reported by Rivera et al..
For quantification, gene fragments from hexon and GAPDH were cloned into the pGEM-T Easy vector (Promega, MA, USA), and known concentrations of template were used to produce a standard curve in parallel for each experiment. All assays were done in thermal cycler LightCycler® 96 System (Roche, Basel, Switzerland).

HAdV5-GFP [1] = assay: microbe, parasite or virus in culture; format: cell-based, human adenovirus; settings: for inhibition at 10 µM / IC50: Human adenovirus sp.; for inhibition at 10 µM: read-out: Plaque Assay (10 μM) (%) Inhibition; for IC50: read-out: Plaque Assay IC50; for Selectivity Index (SI): ratio of CC50 to IC50 in plaque assay; for Plaque Assay (10 μM) (%) Inhibition: HAdV5-GFP, low MOI (0.06 vp/cell), 293β5 cell line
Procedure: Compounds were measured at concentrations of 10 μM and in a dose−response assay ranging from 10 to 0.3 μM using low MOI infections (0.06 vp/cell) in a plaque assay. […] Cells were infected with HAdV5-GFP (0.06 vp/cell) and rocked for 2 h at 37 °C, when cells reached 80%–90% confluency. When the incubation was finished, the inoculum was removed followed by washing the cells once with PBS. […] The compounds were also added to the mixture in concentrations ranging from 10 to 0.3 μM. After incubation for 7 days at 37 °C, we scanned plates with a Typhoon FLA 9000 imager (GE Healthcare Life Sciences, MA, USA) and quantified plaques with ImageJ [47].

A549 cells = settings: cited from earlier work
HAdV5-GFP [2] = settings: read-out: IC50 (anti-HAdV); cited from earlier work
[3] = Cytotoxicity assay (AlamarBlue); format: cell-based; settings: human, A549 cells, A549 cell line
Procedure: The cytotoxicity of these derivatives was tested by commercial kit AlamarBlue® (Ref. DAL1025, Invitrogen, MA, USA). […] The cytotoxic concentration 50 (CC50) value was obtained by using the statistical package GraphPad Prism. This assay was performed in duplicate.

For `O=C(Nc1ccc([N+](=O)[O-])cc1Cl)c1cc(Cl)ccc1O` [Compound 3, niclosamide, reference compound], the “Virus Yield Reduction” value (wild-type HAdV5) was 82 ± 35 fold, the “HPG incorporation compared to control without α-sarcin” value (HAdV5) was “under 50%” and the “Inhibition of HAdV-5 DNA replication (qPCR)” value (HAdV-5 DNA replication) was “prevented any detectable DNA replication”. It also gave an inhibition at 10 µM (HAdV5-GFP [1]) of 100% and an IC50 (HAdV5-GFP [1]) of 0.6 ± 0.05 µM.
For `O=C(Nc1cc(F)cc(C(F)(F)F)c1)c1cc(Cl)ccc1O` [Compound 4], the CC50 (A549 cells) is given as 120 µM and the IC50 (HAdV5-GFP [2]) is given as 0.18 µM.
In the case of `CC1(Nc2ccc(NC(=O)c3cc(Cl)ccc3O)c(Cl)c2)CCCC1` [Compound 5], the CC50 (A549 cells) is given as 157 µM and the IC50 (HAdV5-GFP [2]) is given as 0.27 µM.
For `CC(C)C(NC(=O)c1cc(Cl)ccc1O)C(=O)Nc1ccc([N+](=O)[O-])cc1Cl` (stereo not drawn) [Compound 6], the CC50 (A549 cells) is given as 200 µM and the IC50 (HAdV5-GFP [2]) is given as 0.45 µM.
Work on `O=C(NC1CCCC1)c1cc(Cl)ccc1O` [Compound 11, 5-Chloro-N-cyclopentyl-2-hydroxybenzamide] yielded an inhibition at 10 µM (HAdV5-GFP [1]) of 22.6 ± 7.4%.
For `O=C(NC1CCCCC1)c1cc(Cl)ccc1O` [Compound 12, 5-Chloro-N-cyclohexyl-2-hydroxybenzamide], the inhibition at 10 µM (HAdV5-GFP [1]) was 57.6 ± 0.2%.
For `O=C(NC1CCCCCC1)c1cc(Cl)ccc1O` [Compound 13, 5-Chloro-N-cycloheptyl-2-hydroxybenzamide], the CC50 at 48 h [3] was 30.9 ± 6.3 µM, the inhibition at 10 µM (HAdV5-GFP [1]) was 99.6 ± 0.2% and the IC50 (HAdV5-GFP [1]) was 4.7 ± 0.1 µM. The “Selectivity Index (SI)” value (HAdV5-GFP [1]) was 6.6.
In the case of `O=C(NC1CCOCC1)c1cc(Cl)ccc1O` [Compound 14, 5-Chloro-2-hydroxy-N-(tetrahydro-2H-pyran-4-yl)benzamide], the “Plaque Assay (10 μM) (%) Inhibition” value (HAdV5-GFP [1]) is reported as “completely inactive” and the inhibition at 10 µM (HAdV5-GFP [1]) is reported as 0%.
`CC(C)(C)OC(=O)N1CCC(NC(=O)c2cc(Cl)ccc2O)CC1` [Compound 15, tert-Butyl 4-(5-chloro-2-hydroxybenzamido)piperidine-1-carboxylate] showed an inhibition at 10 µM (HAdV5-GFP [1]) of 52.2 ± 7.1%.
`C[C@H](NC(=O)c1cc(Cl)ccc1O)C1CCCCC1` [Compound 17, (S)-5-Chloro-N-(1-cyclohexylethyl)-2-hydroxybenzamide] showed a CC50 at 48 h [3] of 23 ± 1.3 µM, an inhibition at 10 µM (HAdV5-GFP [1]) of 100% and an IC50 (HAdV5-GFP [1]) of 0.51 ± 0.14 µM. For the same compound, the “Selectivity Index (SI)” value (HAdV5-GFP [1]) was 45.1.
With `O=C(NCC1CCOCC1)c1cc(Cl)ccc1O` [Compound 18, 5-Chloro-2-hydroxy-N-((tetrahydro-2H-pyran-4-yl)methyl)benzamide] the “Plaque Assay (10 μM) (%) Inhibition” value (HAdV5-GFP [1]) was “no anti-HAdV activity” and the inhibition at 10 µM (HAdV5-GFP [1]) was 0%.
With `CC(C)(C)OC(=O)N1CCC(CNC(=O)c2cc(Cl)ccc2O)CC1` [Compound 19, tert-Butyl 4-((5-chloro-2-hydroxybenzamido)methyl)piperidine-1-carboxylate] the inhibition at 10 µM (HAdV5-GFP [1]) was 88.5 ± 1.9%.
For `O=C(NCCC1CCCCC1)c1cc(Cl)ccc1O` [Compound 20, 5-Chloro-N-(2-cyclohexylethyl)-2-hydroxybenzamide], the CC50 at 48 h [3] was 66.3 ± 7.9 µM, the inhibition at 10 µM (HAdV5-GFP [1]) was 97.8 ± 1.7% and the IC50 (HAdV5-GFP [1]) was 1 ± 0.1 µM. For the same compound, the “Selectivity Index (SI)” value (HAdV5-GFP [1]) was 64.3.
For `CC(C)(C)OC(=O)N1CCN(CCNC(=O)c2cc(Cl)ccc2O)CC1` [Compound 21, tert-Butyl 4-(2-(5-chloro-2-hydroxybenzamido)ethyl)piperazine-1-carboxylate], the “Plaque Assay (10 μM) (%) Inhibition” value (HAdV5-GFP [1]) was “neither piperazine analogue (21 and 22) nor the morpholine analogue 23 showed meaningful inhibitory activity” and the inhibition at 10 µM (HAdV5-GFP [1]) was 22.2 ± 13.2%.
In the case of `CN1CCN(CCNC(=O)c2cc(Cl)ccc2O)CC1` [Compound 22, 5-Chloro-2-hydroxy-N-(2-(4-methylpiperazin-1-yl)ethyl)benzamide], the “Plaque Assay (10 μM) (%) Inhibition” value (HAdV5-GFP [1]) is reported as “neither piperazine analogue (21 and 22) nor the morpholine analogue 23 showed meaningful inhibitory activity” and the inhibition at 10 µM (HAdV5-GFP [1]) is reported as 0%.
For `O=C(NCCN1CCOCC1)c1cc(Cl)ccc1O` [Compound 23, 5-Chloro-2-hydroxy-N-(2-morpholinoethyl)benzamide], the “Plaque Assay (10 μM) (%) Inhibition” value (HAdV5-GFP [1]) was “neither piperazine analogue (21 and 22) nor the morpholine analogue 23 showed meaningful inhibitory activity” and the inhibition at 10 µM (HAdV5-GFP [1]) was 0%.
In the case of `CCCCCCNC(=O)c1cc(Cl)ccc1O` [Compound 24, 5-Chloro-N-hexyl-2-hydroxybenzamide], the CC50 at 48 h [3] is reported as 23.8 ± 3.1 µM, the inhibition at 10 µM (HAdV5-GFP [1]) is reported as 98.5 ± 2.1% and the IC50 (HAdV5-GFP [1]) is reported as 3.73 ± 0.64 µM. For the same compound, the “Selectivity Index (SI)” value (HAdV5-GFP [1]) was 6.4.
In the case of `CC(C)(C)OC(=O)NCCCCNC(=O)c1cc(Cl)ccc1O` [Compound 25, tert-Butyl (4-(5-chloro-2-hydroxybenzamido)butyl)carbamate], the inhibition at 10 µM (HAdV5-GFP [1]) is reported as 74 ± 5.7%.
Compound `O=C(c1cc(Cl)ccc1O)N1CCCCC1` [Compound 26, (5-Chloro-2-hydroxyphenyl)(piperidin-1-yl)methanone] has an inhibition at 10 µM (HAdV5-GFP [1]) of 0%.
With `CC(=O)N1CCN(C(=O)c2cc(Cl)ccc2O)CC1` [Compound 27, 1-(4-(5-Chloro-2-hydroxybenzoyl)piperazin-1-yl)ethanone] the inhibition at 10 µM (HAdV5-GFP [1]) was 0%.
Compound `CN1CCN(C(=O)c2cc(Cl)ccc2O)CC1` [Compound 28, (5-Chloro-2-hydroxyphenyl)(4-methylpiperazin-1-yl)methanone] has an inhibition at 10 µM (HAdV5-GFP [1]) of 0%.
